Structures can show the parent of a compound that is named as a salt. Bridge positions count the residues as written; N and C are the ends. Square brackets hold non-standard residues; d marks the D form. Peptide text beside a SMILES is read from it. * marks the point of attachment. X1 = CC[C@H](C)CCCCC(=O)*; Dab = NCC[C@H](N)C(=O)O
Tests used:
S. Typhimurium 14028 = format: cell-based, Salmonella enterica Typhimurium
[1] = test system: TIVAR − S. Typhimurium var. 5 (04)-9639; set-up: species or system BALB/c mice; conditions: in vivo
[2] = test system: TIVAR + S. Typhimurium 14028; set-up: species or system BALB/c mice; conditions: in vivo
[3] = in vivo; cited from earlier work

Structure (SMILES) | resistance linked to growth in LPM pH 5.5 medium (MIC ratio of LPM pH 5.5/pH 7.0 to MHB pH 5.5/pH 7.2) (S. Typhimurium 14028) | effect of pH and media composition on efficacy of antibiotic (S. Typhimurium 14028) | also measured
CC[C@H](C)CCCCC(=O)N[C@@H](CCN)C(=O)N[C@H](C(=O)N[C@@H](CCN)C(=O)N[C@H]1CCNC(=O)[C@H]([C@@H](C)O)NC(=O)[C@H](CCN)NC(=O)[C@H](CCN)NC(=O)[C@H](CC(C)C)NC(=O)[C@@H](Cc2ccccc2)NC(=O)[C@H](CCN)NC1=O)[C@@H](C)O [Polymyxin B, polymyxin B] (X1-[Dab]T[Dab][Dab][Dab][dF]L[Dab][Dab]T; lactam 4-C (inferred); N-terminus assumed) | 64 fold | – | mouse survival post-infection [1]: at least 10 days; time within which all treated mice died ([2]; mouse): ≤ 7 days; circulating PMB levels [3]: 0.5 to 2.5 mg/L
O=C(O)c1cn(C2CC2)c2cc(N3CCNCC3)c(F)cc2c1=O [Ciprofloxacin, ciprofloxacin] | – | – | mouse survival post-infection [2]: at least 10 days
O=C(N[C@H](CO)[C@H](O)c1ccc([N+](=O)[O-])cc1)C(Cl)Cl [Chloramphenicol, chloramphenicol] | – | unaffected | –
CO/N=C(\C(=O)N[C@@H]1C(=O)N2C(C(=O)O)=C(CSC(=O)c3ccco3)CS[C@H]12)c1csc(N)n1 [Ceftiofur, ceftiofur] | – | unaffected | –
COc1cc(Cc2cnc(N)nc2N)cc(OC)c1OC [Trimethoprim, trimethoprim] | 4 fold | – | –
CC[C@H](C)CCCCC(=O)N[C@@H](CCN)C(=O)N[C@H](C(=O)N[C@@H](CCN)C(=O)N[C@H]1CCNC(=O)[C@H]([C@@H](C)O)NC(=O)[C@H](CCN)NC(=O)[C@H](CCN)NC(=O)[C@H](CC(C)C)NC(=O)[C@@H](CC(C)C)NC(=O)[C@H](CCN)NC1=O)[C@@H](C)O [Colistin sulfate, colistin sulfate] (X1-[Dab]T[Dab][Dab][Dab][dL]L[Dab][Dab]T; lactam 4-C (inferred); N-terminus assumed) | 256 fold | – | –
CN(C)[C@@H]1C(O)=C(C(N)=O)C(=O)[C@@]2(O)C(O)=C3C(=O)c4c(O)cccc4[C@@](C)(O)[C@H]3C[C@@H]12 [Tetracycline, tetracycline] | – | unaffected | –
